For the test, the system named is P388 leukemia ip, CD2F1 mice, survival T/C. In words: NCI In Vivo Anticancer Drug Screen. Data for tumor model P388 Leukemia (intraperitoneal) in CD2F1 (CDF1) mice. The conditions noted are these: endpoint: median survival time, higher = longer survival. An outline of the steps:
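Mice carrying the transplanted tumor received test compound or vehicle. Survival was recorded in each group, and the value is the treated-group measurement divided by that of the vehicle-treated control group.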

Setting [1] is: dose: 60.0 mg/kg/injection, schedule: Q01DX005 (ip), vehicle: saline with Tween-80.
Where [2] appears, read: dose: 120.0 mg/kg/injection, schedule: Q01DX005 (ip), vehicle: saline with Tween-80.
Where [3] appears, read: dose: 240.0 mg/kg/injection, schedule: Q01DX005 (ip), vehicle: saline with Tween-80.
Setting [4] is: dose: 50.0 mg/kg/injection, schedule: Q01DX009 (ip), vehicle: Klucel (hydroxypropylcellulose) (HPC).
[5] abbreviates: dose: 100.0 mg/kg/injection, schedule: Q01DX009 (ip), vehicle: Klucel (hydroxypropylcellulose) (HPC).
Setting [6] is: dose: 200.0 mg/kg/injection, schedule: Q01DX009 (ip), vehicle: Klucel (hydroxypropylcellulose) (HPC).
Setting [7] is: dose: 50.0 mg/kg/injection, schedule: Q01DX005 (ip), vehicle: saline with Tween-80.
[8] abbreviates: dose: 100.0 mg/kg/injection, schedule: Q01DX005 (ip), vehicle: saline with Tween-80.
Setting [9] is: dose: 200.0 mg/kg/injection, schedule: Q01DX005 (ip), vehicle: saline with Tween-80.
The mark [10] stands for this setting: dose: 25.0 mg/kg/injection, schedule: Q01DX005 (ip), vehicle: saline with Tween-80.
[11] abbreviates: dose: 50.0 mg/kg/injection, schedule: Q01DX009 (ip), vehicle: saline with Tween-80.
The mark [12] stands for this setting: dose: 100.0 mg/kg/injection, schedule: Q01DX009 (ip), vehicle: saline with Tween-80.
Where [13] appears, read: dose: 12.5 mg/kg/injection, schedule: Q01DX009 (ip), vehicle: saline.
[14] abbreviates: dose: 50.0 mg/kg/injection, schedule: Q01DX009 (ip), vehicle: saline.
[15] abbreviates: dose: 200.0 mg/kg/injection, schedule: Q01DX009 (ip), vehicle: saline with Tween-80.

Values joined by “and” are separate entries in the source; they are usually repeats but may differ in a detail not shown here. Equal values may be shown once. Inconclusive results and toxic doses are left out.

With `c1ccc(CNSC(c2ccccc2)(c2ccccc2)c2ccccc2)cc1`, the T/C (dose: 100.0 mg/kg/injection, schedule: Q04DX002 (ip), vehicle: saline with Tween-80) is 101 % of control; the T/C (dose: 200.0 mg/kg/injection, schedule: Q04DX002 (ip), vehicle: saline with Tween-80) is 102 % of control; the T/C (dose: 400.0 mg/kg/injection, schedule: Q04DX002 (ip), vehicle: saline with Tween-80) was 92 % of control.

Consider `Fc1cccc(F)c1C(Nc1nncs1)Nc1nncs1`, for which the T/C by setting is: under setting [1], 108 % of control; under setting [2], 109 % of control; under setting [3], 160 % of control.

For `CCOC(=O)/C(C=NCC(C)(CN=C/C(C(=O)OCC)=C(/C)O)CN=C/C(C(=O)OCC)=C(/C)O)=C(\C)O` (centres undefined), the T/C is, setting by setting: under setting [4], 93 % of control; under setting [5], 90 % of control; under setting [6], 87 % of control.

Consider `COc1nc(=O)n(C2CCCO2)cc1Br` (centres undefined), for which the T/C by setting is: under setting [1], 96 % of control; under setting [2], 102 % of control; under setting [3], 100 % of control.

For `CC(=O)c1nn(-c2ccccc2)c(=O)cc1C`, the T/C is 100 % of control under setting [7], 98 % of control under setting [8] and 100 % of control under setting [9].

`CCOc1cccc2nncn12`: the T/C runs as follows: (dose: 100.0 mg/kg/injection, schedule: Q01DX001 (ip), vehicle: saline) 102 % of control; (dose: 200.0 mg/kg/injection, schedule: Q01DX001 (ip), vehicle: saline) 103 % of control.

With `Nc1nc2nc(N)[nH]c2c(=O)[nH]1`, the T/C is 95 % of control (dose: 12.5 mg/kg/injection, schedule: Q01DX005 (ip), vehicle: saline with Tween-80); 100 % of control and 105 % of control and 106 % of control under setting [10]; 100 % of control and 104 % of control and 113 % of control under setting [7]; 107 % of control under setting [9].

In the case of `CN(C)c1ccc(C(=N)c2ccc(N(C)C)cc2)cc1` (tested in a mixture with another compound), the T/C by setting is: (dose: 25.0 mg/kg/injection, schedule: Q01DX009 (ip), vehicle: saline with Tween-80) 100 % of control; under setting [11], 95 % of control; under setting [12], 100 % of control.

Turning to `Oc1ccccc1-c1cc(-c2ccccc2)nc(NCCCNc2nc(-c3ccccc3)cc(-c3ccccc3O)n2)n1`, the T/C was 92 % of control (dose: 50.0 mg/kg/injection, schedule: Q01DX005 (ip), vehicle: Klucel (hydroxypropylcellulose) (HPC)); 88 % of control (dose: 100.0 mg/kg/injection, schedule: Q01DX005 (ip), vehicle: Klucel (hydroxypropylcellulose) (HPC)); 86 % of control (dose: 200.0 mg/kg/injection, schedule: Q01DX005 (ip), vehicle: Klucel (hydroxypropylcellulose) (HPC)).

As for `CS(=O)(=O)Oc1cccn(S(C)(=O)=O)c1=O`, the T/C under setting [13] is 97 % of control; the T/C (dose: 25.0 mg/kg/injection, schedule: Q01DX009 (ip), vehicle: saline) is 92 % of control; the T/C under setting [14] was 97 % of control; the T/C (dose: 100.0 mg/kg/injection, schedule: Q01DX009 (ip), vehicle: saline) is 97 % of control; the T/C (dose: 200.0 mg/kg/injection, schedule: Q01DX009 (ip), vehicle: saline) is 97 % of control.

As to `O=C(O)CC(CSCP(=O)(O)O)C(=O)O` (centres undefined), the T/C was 102 % of control (dose: 50.0 mg/kg/injection, schedule: Q01DX005 (ip), vehicle: suspension in saline); 91 % of control (dose: 100.0 mg/kg/injection, schedule: Q01DX005 (ip), vehicle: suspension in saline); 89 % of control (dose: 200.0 mg/kg/injection, schedule: Q01DX005 (ip), vehicle: suspension in saline).

For the compound `COC(=O)CC1(C(=O)OC)C2=C(CCCC2)N2CCCC21` (centres undefined), the T/C reads like this: (dose: 21.88 mg/kg/injection, schedule: Q01DX009 (ip), vehicle: Klucel (hydroxypropylcellulose) (HPC)) 102 % of control; (dose: 43.75 mg/kg/injection, schedule: Q01DX009 (ip), vehicle: Klucel (hydroxypropylcellulose) (HPC)) 102 % of control; (dose: 87.5 mg/kg/injection, schedule: Q01DX009 (ip), vehicle: Klucel (hydroxypropylcellulose) (HPC)) 100 % of control; (dose: 175.0 mg/kg/injection, schedule: Q01DX009 (ip), vehicle: Klucel (hydroxypropylcellulose) (HPC)) 100 % of control.

On to `O=C(c1ncccc1O)N1CCCCC1`, for which the T/C is 88 % of control (dose: 12.5 mg/kg/injection, schedule: Q01DX009 (ip), vehicle: distilled water + Tween-80); 92 % of control (dose: 50.0 mg/kg/injection, schedule: Q01DX009 (ip), vehicle: distilled water + Tween-80); 99 % of control (dose: 100.0 mg/kg/injection, schedule: Q01DX009 (ip), vehicle: distilled water + Tween-80); 100 % of control (dose: 200.0 mg/kg/injection, schedule: Q01DX009 (ip), vehicle: distilled water + Tween-80).

On to `O=[N+]([O-])c1ccc(O)c(CN2CCC(O)(c3ccccc3)CC2)c1`, for which the T/C (dose: 100.0 mg/kg/injection, schedule: Q04DX003 (ip), vehicle: Klucel (hydroxypropylcellulose) (HPC)) is 108 % of control; the T/C (dose: 200.0 mg/kg/injection, schedule: Q04DX003 (ip), vehicle: Klucel (hydroxypropylcellulose) (HPC)) was 99 % of control; the T/C (dose: 400.0 mg/kg/injection, schedule: Q04DX003 (ip), vehicle: Klucel (hydroxypropylcellulose) (HPC)) is 107 % of control.

For the compound `COc1ccc(NC(=S)Nc2ccc(OCCCN3CCOCC3)cc2)cc1`, the T/C reads like this: (dose: 100.0 mg/kg/injection, schedule: Q04DX002 (ip), vehicle: Klucel (hydroxypropylcellulose) (HPC)) 96 % of control; (dose: 200.0 mg/kg/injection, schedule: Q04DX002 (ip), vehicle: Klucel (hydroxypropylcellulose) (HPC)) 94 % of control; (dose: 400.0 mg/kg/injection, schedule: Q04DX002 (ip), vehicle: Klucel (hydroxypropylcellulose) (HPC)) 94 % of control.

Turning to `O=C(CNC(=O)c1ccccc1)N/N=C/c1ccco1`, the T/C is 95 % of control under setting [1], 101 % of control under setting [2] and 100 % of control under setting [3].

Consider `O=C(Nc1ccc(Cl)cc1)Oc1ccc(Cl)cc1C(=O)c1ccccc1`, for which the T/C by setting is: under setting [1], 111 % of control; under setting [2], 110 % of control; under setting [3], 112 % of control.

For the compound `COc1cc2ccc(/C(C)=N/OC(C)=O)cc2cc1OC`, the T/C is, setting by setting: under setting [12], 95 % of control; under setting [15], 90 % of control; (dose: 400.0 mg/kg/injection, schedule: Q01DX009 (ip), vehicle: saline with Tween-80) 90 % of control.

As for `O=C1C(O)=C(c2ccccc2)C(=O)C(O)=C1c1ccccc1`, the T/C was 101 % of control and 124 % of control under setting [13]; 157 % of control and 164 % of control under setting [14].

As for `CC(=O)OCCC/C(=C\c1c2ccccc2cc2ccccc12)[N+](=O)[O-]`, the T/C (dose: 60.0 mg/kg/injection, schedule: Q01DX005 (ip), vehicle: suspension in saline) is 100 % of control; the T/C (dose: 120.0 mg/kg/injection, schedule: Q01DX005 (ip), vehicle: suspension in saline) is 102 % of control; the T/C (dose: 240.0 mg/kg/injection, schedule: Q01DX005 (ip), vehicle: suspension in saline) is 97 % of control.

As to `COC1/C=C\OC2(C)Oc3c(C)c(O)c4c(O)c(c5c(c4c3C2=O)NC2(CCN(Cc3ccccc3)CC2)N=5)=NC(=O)/C(C)=C\C=C\C(C)C(O)C(C)C(O)C(C)C(OC(C)=O)C1C` (centres undefined), the T/C by setting is: (dose: 25.0 mg/kg/injection, schedule: Q01DX009 (ip), vehicle: Klucel (hydroxypropylcellulose) (HPC)) 102 % of control; under setting [4], 107 % of control; under setting [5], 111 % of control; under setting [6], 103 % of control.

For `CC1(C)CC(OP(=O)(N(CCCl)CCCl)N2CC2)CC(C)(C)N1O` (centres undefined), the T/C runs as follows: (dose: 13.0 mg/kg/injection, schedule: Q01DX009 (ip), vehicle: saline + alcohol) 102 % of control; (dose: 25.0 mg/kg/injection, schedule: Q01DX009 (ip), vehicle: saline + alcohol) 102 % of control; (dose: 50.0 mg/kg/injection, schedule: Q01DX009 (ip), vehicle: saline + alcohol) 114 % of control.

Regarding `O=C1C=CC2C=CC1C=C2`, the T/C is, setting by setting: under setting [10], 116 % of control; under setting [7], 104 % of control; under setting [1], 118 % of control; under setting [8], 122 % of control.

As to `COC(=O)C1CC=CCC1C(=O)O` (centres undefined), the T/C runs as follows: under setting [11], 93 % of control; under setting [12], 95 % of control; under setting [15], 99 % of control.

With `COC(=O)Nc1ccc(C2OCCN2C(=O)Nc2ccc(Cl)cc2)cc1` (centres undefined), the T/C under setting [7] was 87 % of control and the T/C under setting [8] is 88 % of control.

Values taken from PubChem BioAssay AID330 (DTP/NCI, 2004).
